# Laboratory results from patent US7700584B2 (Hangzhou Minsheng Pharmaceuticals Co., Ltd., priority 2004, dated 2010).
# Counter-ions that a name gives are not always drawn. Like-named read-outs stand apart in the source and are kept apart here.
# Key:
# [1] = tested on: Bel-7402 human hepatic carcinoma; assay: In vitro inhibition rate to tumor cells (MTT), Bel-7402; assay type: cell-based; details: for inhibition at 50 µg/mL: Homo sapiens; for inhibition rate, Results (%) Bel-7402: 50 μg/ml
# [2] = tested on: U-937 human histocytic lymphoma; assay: In vitro inhibition rate to tumor cells (MTT), U-937; assay type: cell-based; details: for inhibition at 50 µg/mL: Homo sapiens; for inhibition rate, Results (%) U-937: 50 μg/ml
# [3] = tested on: 293 cells; assay: Cell status of 293 cells treated with sample alone (herpes virus screening); details: 200 μg/ml, 24 hrs
# [4] = tested on: A-549 human lung adenocarcinoma; assay: In vitro inhibition rate to tumor cells (MTT), A-549; assay type: cell-based; details: for inhibition at 50 µg/mL: Homo sapiens; for inhibition rate, Results (%) A-549: 50 μg/ml
# [5] = tested on: LLC mouse Lewis lung carcinoma; assay: In vitro inhibition rate to tumor cells (MTT), LLC; assay type: cell-based; details: 50 μg/ml; for inhibition at 50 µg/mL: Mus musculus, Lewis lung carcinoma
# [6] = tested on: Hela human cervical carcinoma; assay: In vitro inhibition rate to tumor cells (MTT), Hela; assay type: cell-based; details: for inhibition at 50 µg/mL: Homo sapiens, HeLa
# [7] = tested on: HL-60 human promyelocytic leukemia; assay: In vitro inhibition rate to tumor cells (MTT), HL-60; assay type: cell-based; details: for inhibition at 50 µg/mL: Homo sapiens; for inhibition rate, Results (%) HL-60: 50 μg/ml
# [8] = target: T1, HIV-1 integrase (HIV-1 IN) (Human immunodeficiency virus type 1 group M subtype B, UniProt P04585); assay: Screening for the activity against HIV-1 integrase; assay type: biochemical
# T1 construct: a purified HIV-1 integrase was added into each well; purchased
# Method: Principle of the test: A synthetic oligonucleotide of 30 nt was used as the donor substrate. A synthetic oligonucleotide of 20 nt was used as the target substrate. A 96-well plate was covered by the donor substrate, and a purified HIV-1 integrase was added into each well. ELISA was performed to measure the product of the target DNA chain transfer. A biotin-labeled alkali phosphatase was used to visual the system. OD value was measured by an Enzyme-linked Detector. Add a sample into the reaction system for screening the inhibitor of the enzyme.
# 1. HIV-1 IN: commercially available.
# 2. Treatment of the samples: Before use, the sample was dissolved in water or DMSO at a suitable concentration, then serially diluted (5×), four serial dilutions per sample. The stock solutions of two samples were 100-fold diluted with DMSO, then 5-fold diluted, four serial dilutions per sample. Positive control: S-y, provided by Shanghai Organic Chemistry Institute.
# 3. The donor substrate and target substrate: synthesized by Shanghai Biological Engineering Company (Shanghai Shenggong).
# 4. Methods: The diluted sample was added into a 96-well plate covered by the donor substrate, and then added into the reaction buffer containing the genetic engineered target enzyme and biotin-target substrate, incubated in the optimal reaction conditions. A biotin-labeled alkali phosphatase was used to visual the system to determine the absorbance at 450 nm (OD450).
# [9] = target: T2, HIV-1 reverse transcriptase (Human immunodeficiency virus type 1 group M subtype B, UniProt P04585); assay: Screening for the in vitro activity against the HIV-1 reverse transcriptase; assay type: biochemical
# T2 construct: purchased
# Method: Principle of the test: The template to which the HIV-1 reverse transcriptase interacts was covered onto the enzyme-lined template. In the optimal reaction conditions and system, HIV-1 RT will put the substrate comprising Biotin-dUTP onto the reaction template. The activity of the enzyme was measured as the amount of the integrating Biotin-dUTP in the reaction by using streptavidin-labeled horseradish peroxidase. Adding the sample to the reaction system can identify inhibitor of the enzyme.
# 1. HIV-1 RT: commercially available.
# 2. Treatment of the samples: Before use, the sample was dissolved in DMSO at a suitable concentration, then serially diluted (5×) with double distilled water, five serial dilutions per sample.
# 4. Methods: The diluted sample was added into the reaction buffer containing Biotin-dUTP and the genetic engineered target enzyme, and incubated in the optimal reaction conditions. A streptavidin-labeled horseradish peroxidase was added to visual the system, and OD450 was measured.
# [10] = tested on: MCF-7 human mammary adenocarcinoma; assay: In vitro inhibition rate to tumor cells (MTT), MCF-7; assay type: cell-based; details: for inhibition at 50 µg/mL: Homo sapiens; for inhibition rate, Results (%) MCF-7: 50 μg/ml
# [11] = tested on: U-937 human histocytic lymphoma; assay: In vitro anti-tumor IC50 (MTT), U-937; assay type: cell-based; details: Table 4
# Method: (§1) (1) Single cell suspension was seeded into 96-well plates (the cells was diluted in the PRMI-1640 minimum medium to 3×10^4 cells/ml, […] diluted cells/well). […] The experiments were performed in quadruplicate.
# (§2) (2) The medium was removed. Solutions of the anti-tumor agents (50 compounds) were prepared in a freshly prepared medium at serial concentrations. […] of the solution was added into each well. Incubation was continued for 48 hours.
# (§3) (3) 20 ug of 2 mg/ml MTT was added into each well, and incubated for 4 hours.
# (§4) (4) The medium was removed from the well. The microplates were swiftly turned down to throw-off the medium. […] of DMSO was added into each well, and vortexed at room temperature for 10 minutes.
# (§5) (5) OD value (λ=570 nm) was measured with an Enzyme-Linked Detector.
# (§6) (6) The graph of cell vitality was plotted, and IC50 was calculated.
# [12] = tested on: Hela human cervical carcinoma; assay: In vitro anti-tumor IC50 (MTT), Hela; assay type: cell-based; details: Table 4
# [13] = tested on: HL-60 human promyelocytic leukemia; assay: In vitro anti-tumor IC50 (MTT), HL-60; assay type: cell-based; details: Table 4
# Method: as §1, §2, §3, §4, §5, §6
# [14] = Bel-7402, 50 μg/ml, Table 2 (repeated screening), read-out: inhibition rate, Results (%) Bel-7402
# [15] = U-937, 50 μg/ml, Table 2 (repeated screening), read-out: inhibition rate, Results (%) U-937
# [16] = A549, 50 μg/ml, Table 2 (repeated screening), read-out: inhibition rate, Results (%) A-549
# [17] = 50 μg/ml, Table 2 (repeated screening), read-out: inhibition rate, Results (%) Hela
# [18] = HL-60, 50 μg/ml, Table 2 (repeated screening), read-out: inhibition rate, Results (%) HL-60
# [19] = MCF7, 50 μg/ml, Table 2 (repeated screening), read-out: inhibition rate, Results (%) MCF-7
# [20] = Table 2 (repeated screening), hydrochloride
smiles,measurement,setting,value
"C=C1CC2(OC(=O)C(C)C)OC3(CC2C(C)C)C(C)CCC13 (centres unmarked) [Compound 3, Curcumol isobutyrate]",inhibition at 50 µg/mL,"[1]; Bel-7402, 50 μg/ml, Table 1, read-out: inhibition rate, Results (%) Bel-7402",14.4%
same,inhibition at 50 µg/mL,[1]; [14],11%
same,inhibition at 50 µg/mL,"[2]; U-937, 50 μg/ml, Table 1, read-out: inhibition rate, Results (%) U-937",91.7%
same,inhibition at 50 µg/mL,[2]; [15],93%
same,"Cytopathy and cell status, Sample",[3],Normal
same,inhibition at 50 µg/mL,"[4]; A549, 50 μg/ml, Table 1, read-out: inhibition rate, Results (%) A-549",7.76%
same,inhibition at 50 µg/mL,[4]; [16],10.3%
same,inhibition at 50 µg/mL,[5]; Table 1,6.89%
same,inhibition at 50 µg/mL,[5]; Table 2 (repeated screening),0.02%
same,inhibition at 50 µg/mL,"[6]; 50 μg/ml, Table 1, read-out: inhibition rate, Results (%) Hela",69.2%
same,inhibition at 50 µg/mL,[6]; [17],70.2%
same,inhibition at 50 µg/mL,"[7]; HL-60, 50 μg/ml, Table 1, read-out: inhibition rate, Results (%) HL-60",3.21%
same,inhibition at 50 µg/mL,[7]; [18],4.89%
same,IC50,[8],117 µM
same,inhibition rate of HIV-1 reverse transcriptase,[9]; 120 ug/ml,60%
same,IC50,"[9]; IC50, initial concentration 1/150 of the stock solution",< 392 µM
same,inhibition at 50 µg/mL,"[10]; MCF7, 50 μg/ml, Table 1, read-out: inhibition rate, Results (%) MCF-7",32.1%
same,inhibition at 50 µg/mL,[10]; [19],22.4%
"CC(C)C1CC23OC1(O)C/C(=C\Nc1ccc(O)cc1)C2CCC3C (centres unmarked) [Compound 5, Curcumol p-hydroxy aniline]","inhibition rate, Results (%) Bel-7402",[1]; Table 3 (repeated screening),78.97%
same,inhibition at 50 µg/mL,[1]; [14],81.5%
same,inhibition at 50 µg/mL,"[1]; Bel-7402, read-out: inhibition rate, Results (%) Bel-7402, 50 μg/ml, Table 1",80.2%
same,"inhibition rate, Results (%) U-937",[2]; Table 3 (repeated screening),91.03%
same,inhibition at 50 µg/mL,[2]; [15],95.6%
same,inhibition at 50 µg/mL,"[2]; U-937, read-out: inhibition rate, Results (%) U-937, 50 μg/ml, Table 1",94%
same,IC50,"[11]; Homo sapiens, U-937, read-out: IC50 (ug/ml) against tumor cell lines, U-937",0.42 µg/mL
same,"Cytopathy and cell status, Sample",[3],Good
same,IC50,"[12]; Homo sapiens, HeLa, read-out: IC50 (ug/ml) against tumor cell lines, Hela",0.32 µg/mL
same,"inhibition rate, Results (%) A-549",[4]; Table 3 (repeated screening),91.23%
same,inhibition at 50 µg/mL,[4]; [16],90%
same,inhibition at 50 µg/mL,"[4]; A549, read-out: inhibition rate, Results (%) A-549, 50 μg/ml, Table 1",90.3%
same,"inhibition rate, Results (%) LLC",[5]; Table 1,3.21%
same,"inhibition rate, Results (%) LLC",[5]; Table 3 (repeated screening),86.54%
same,inhibition at 50 µg/mL,[5]; Table 2 (repeated screening),85.1%
same,"inhibition rate, Results (%) Hela","[6]; 50 μg/ml, Table 3 (repeated screening)",94.55%
same,inhibition at 50 µg/mL,[6]; [17],92.3%
same,inhibition at 50 µg/mL,"[6]; read-out: inhibition rate, Results (%) Hela, 50 μg/ml, Table 1",94.4%
same,IC50,"[13]; Homo sapiens, HL-60, read-out: IC50 (ug/ml) against tumor cell lines, HL-60",0.4 µg/mL
same,"inhibition rate, Results (%) HL-60",[7]; Table 3 (repeated screening),95.14%
same,inhibition at 50 µg/mL,[7]; [18],90.9%
same,inhibition at 50 µg/mL,"[7]; HL-60, read-out: inhibition rate, Results (%) HL-60, 50 μg/ml, Table 1",91.3%
same,inhibition at 100 µg/mL,"[8]; initial concentration 100 μg/ml, read-out: IC50",< 50%
same,IC50,"[9]; initial concentration 200 μg/ml, read-out: IC50",> 582 µM
same,"inhibition rate, Results (%) MCF-7",[10]; Table 3 (repeated screening),95.53%
same,inhibition at 50 µg/mL,[10]; [19],91%
same,inhibition at 50 µg/mL,"[10]; MCF7, read-out: inhibition rate, Results (%) MCF-7, 50 μg/ml, Table 1",90.3%
"CC(C)C1CC23OC1(O)C/C(=C\Nc1ccc(O)cc1)C2CCC3C (centres unmarked) [Compound 6, Curcumol p-hydroxy aniline hydrochloride]","inhibition rate, Results (%) Bel-7402","[1]; Table 1, hydrochloride",81.84%
same,"inhibition rate, Results (%) Bel-7402",[1]; [20],81.84%
same,inhibition at 50 µg/mL,"[1]; Bel-7402, 50 μg/ml, Table 3 (repeated screening), read-out: inhibition rate, Results (%) Bel-7402",83.6%
same,"inhibition rate, Results (%) U-937","[2]; Table 1, hydrochloride",90.92%
same,"inhibition rate, Results (%) U-937",[2]; [20],94.12%
same,inhibition at 50 µg/mL,"[2]; U-937, 50 μg/ml, Table 3 (repeated screening), read-out: inhibition rate, Results (%) U-937",94.1%
same,"IC50 (ug/ml) against tumor cell lines, U-937",[11]; hydrochloride,0.56 µg/mL
same,"Cytopathy and cell status, Sample",[3],Good
same,"IC50 (ug/ml) against tumor cell lines, Hela",[12]; hydrochloride,0.35 µg/mL
same,"inhibition rate, Results (%) A-549","[4]; Table 1, hydrochloride",91.84%
same,"inhibition rate, Results (%) A-549",[4]; [20],92.84%
same,inhibition at 50 µg/mL,"[4]; A549, 50 μg/ml, Table 3 (repeated screening), read-out: inhibition rate, Results (%) A-549",90.1%
same,"inhibition rate, Results (%) LLC","[5]; Table 1, hydrochloride",88.23%
same,"inhibition rate, Results (%) LLC",[5]; [20],87.02%
same,inhibition at 50 µg/mL,[5]; Table 3 (repeated screening),85%
same,"inhibition rate, Results (%) Hela","[6]; 50 μg/ml, Table 1, hydrochloride",95.26%
same,"inhibition rate, Results (%) Hela","[6]; 50 μg/ml, Table 2 (repeated screening), hydrochloride",95.26%
same,inhibition at 50 µg/mL,"[6]; 50 μg/ml, Table 3 (repeated screening), read-out: inhibition rate, Results (%) Hela",92.3%
same,"IC50 (ug/ml) against tumor cell lines, HL-60",[13]; hydrochloride,0.51 µg/mL
same,"inhibition rate, Results (%) HL-60","[7]; Table 1, hydrochloride",93.21%
same,"inhibition rate, Results (%) HL-60",[7]; [20],93.21%
same,inhibition at 50 µg/mL,"[7]; HL-60, 50 μg/ml, Table 3 (repeated screening), read-out: inhibition rate, Results (%) HL-60",95.5%
same,IC50,[9]; initial concentration 200 μg/ml,> 582 µM
same,"inhibition rate, Results (%) MCF-7","[10]; Table 1, hydrochloride",91.89%
same,"inhibition rate, Results (%) MCF-7",[10]; [20],91.89%
same,inhibition at 50 µg/mL,"[10]; MCF7, 50 μg/ml, Table 3 (repeated screening), read-out: inhibition rate, Results (%) MCF-7",94.1%
